Residue numbers refer to the chain shown, from its start. Read-outs that look alike come from different tables or passages of the source.
Columns and labels:
hOGA Y69K = target: T1, hOGA Y69K (Homo sapiens, UniProt O60502, Y69K); assay: hOGA Y69K mutant glycopeptide hydrolysis, substrate competition assay; assay type: biochemical; settings: hOGA point mutant Y69K; competition with 4MU-GlcNAc; 37°C, pH 7.4; triplicate; read-out: Michaelis constant (KM) for hOGA Y69K
T1 construct: GST (N); made in house; host or cells: transiently transfected HEK293 cells
T1 sequence (O60502 1-916 Y69K): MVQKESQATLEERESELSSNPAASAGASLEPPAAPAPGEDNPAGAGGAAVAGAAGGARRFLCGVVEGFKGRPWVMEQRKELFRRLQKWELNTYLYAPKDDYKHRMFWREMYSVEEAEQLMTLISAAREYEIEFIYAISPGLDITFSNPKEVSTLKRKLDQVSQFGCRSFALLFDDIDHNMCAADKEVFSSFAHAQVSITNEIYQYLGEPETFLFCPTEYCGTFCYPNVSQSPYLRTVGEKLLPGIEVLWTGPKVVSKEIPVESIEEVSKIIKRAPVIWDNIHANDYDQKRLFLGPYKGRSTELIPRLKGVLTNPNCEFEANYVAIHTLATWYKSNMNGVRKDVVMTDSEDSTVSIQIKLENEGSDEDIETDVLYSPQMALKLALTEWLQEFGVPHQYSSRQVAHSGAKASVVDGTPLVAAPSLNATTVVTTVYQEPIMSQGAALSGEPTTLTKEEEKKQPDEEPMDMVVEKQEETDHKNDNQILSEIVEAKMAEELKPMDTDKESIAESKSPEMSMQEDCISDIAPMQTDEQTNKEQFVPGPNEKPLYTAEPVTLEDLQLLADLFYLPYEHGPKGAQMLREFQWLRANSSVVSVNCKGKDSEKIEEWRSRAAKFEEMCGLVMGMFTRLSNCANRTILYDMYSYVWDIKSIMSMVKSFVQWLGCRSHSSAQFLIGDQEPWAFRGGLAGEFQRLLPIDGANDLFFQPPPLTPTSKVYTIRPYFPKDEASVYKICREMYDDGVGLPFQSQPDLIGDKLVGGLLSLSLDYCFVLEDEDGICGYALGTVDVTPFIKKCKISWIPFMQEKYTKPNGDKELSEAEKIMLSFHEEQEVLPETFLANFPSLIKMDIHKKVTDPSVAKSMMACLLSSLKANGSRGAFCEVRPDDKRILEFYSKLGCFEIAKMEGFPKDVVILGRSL

hOGA = target: T2, hOGA (Homo sapiens, UniProt O60502); assay: hOGA glycopeptide hydrolysis, substrate competition assay with 4MU-GlcNAc reporter; assay type: biochemical; parameters: GST (N); made in house; host or cells: transiently transfected HEK293 cells; settings: wild-type full-length hOGA, competition with 4MU-GlcNAc reporter substrate, 37°C, 50 mM citrate-phosphate buffer pH 7.4, 0.1 mg/ml BSA, triplicate, ± error of curve-fit, read-out: Michaelis constant (KM) of glycopeptide substrate for hOGA
T2 sequence (O60502 1-916): T1 sequence (O60502 1-916 Y69K) with K69Y
Experimental: Protein was expressed in transiently transfected HEK293 cells and purified via glutathione sepharose affinity chromatography.
hOGA and CpOGA glycopeptide hydrolysis assays were carried out as described previously ([Dorfmueller et al., 2006; Schimpl et al., 2010]) using multisubstrate enzyme kinetics with the fluorigenic pseudosubstrate 4MU-GlcNAc as the reporter substrate. […] Reactions were performed at 37°C in 50 mM citrate-phosphate buffer (pH 7.4) and 0.1 mg/ml BSA. Experiments were performed in triplicate, and data were analyzed and plotted with GraphPad PRISM.

| Substance | Km (hOGA Y69K) | Km (hOGA) | Km (hOGA; listed as PVSVPYS(O-GlcNAc)SAQSTS) |
| --- | --- | --- | --- |
| p53 (Ser149) 11: 11-residue O-GlcNAc glycopeptide derived from p53 Ser149 site | 350 ± 20 µM | 21 ± 3 µM | – |
| VAHS(O-GlcNAc)GAK [hOGA (Ser405) 7, 7-residue O-GlcNAc glycopeptide derived from hOGA Ser405 site] | > 4000 µM | – | – |
| PVSVPYS(O-GlcNAc)SAQSTS [TAB1 (Ser395) 13, 13-residue O-GlcNAc glycopeptide derived from TAB1 Ser395 site] | > 4000 µM | 900 ± 30 µM | 940 ± 80 µM |
